For three compounds, inhibition and exposure results are on record in patent US20240360137A1 (Novartis AG, priority 2023, published 2024).

In general, inhibition refers to the relative decrease from the control value, in per cent.

The test system of data set [1] is RB phosphorylation (Ser 807/811) in OVCAR3 xenograft tumors. Description: In vivo pharmacodynamic assessment in Cyclin E amplified OVCAR3 xenograft model (RB phosphorylation by MSD). Further details: species or system NSG mice. The note with it: Mus musculus, 3 days, 1 hour after the last dose; for inhibition at 30 mg/kg: OVCAR-3, 30 mg/kg twice daily (BID) oral. An excerpt:
Cyclin-dependent kinase 2 (CDK2) is a member of the protein kinase family. It plays an important role in regulating various events of the eukaryotic cell division cycle. CDK2 is involved in the inactivation of the retinoblastoma protein (RB) by phosphorylation which then allows for the G1 to S phase transition of the cell cycle. Overexpression of cyclin E, the obligate binding partner of CDK2, can cause abnormal regulation of the cell cycle, which is directly associated with hyperproliferation of cancer cells. Therefore, CDK2 is regarded as a potentially impactful therapeutic target for cancer treatment. The purpose of these studies was to evaluate the PK/PD relationship of CDK2 inhibitors in Cyclin E amplified cancer cell lines in vivo in immunodeficient mice. Plasma and tumor tissues were collected for PK analysis and PD assays (read out of RB phosphorylation inhibition) after 3 days of dosing of the CDK2 inhibitor.
(§1) The Cyclin E amplified ovarian cancer cell line OVCAR3 was tested to be free of Mycoplasma and murine viruses using the IDEXX Impact 8 panel. Cells were cultured in RPMI 1640 media supplemented with 20% FBS for fewer than 5 passages after initial thawing and prior to cell implantation into immunodeficient mice. Cells were harvested and resuspended in sterile PBS containing 50% Matrigel. Ten million viable cells were injected at a volume of 0.2 ml per mouse into the flank of immunocompromised NSG mice (1 implant per animal). When tumors reached a mean volume of 200-300 mm^3, mice were randomized and treatments were initiated. Compounds were formulated in 10% HPBCD (hydroxypropyl beta cyclodextrin) and administered orally, twice a day, in a volume of 10 ml/kg. The dosing volume was adjusted based on individual mouse body weight on the day of dosing. Pharmacodynamic markers were evaluated on day 3.
For terminal PD biomarker analysis, mice were euthanized following 3 days of treatment (1 hour post 5th dose). […] RB phosphorylation levels of the resulting tumor protein lysates were then determined by MSD. […] Values were calculated and normalized to the untreated controls. […]

Data set [2] in a line: PK analysis of plasma in OVCAR3 xenograft study. It counts as in vivo, NSG mice. The note with it: 60 mg/kg BID oral, compared to Compound 1 and Compound 2 at 30 mg/kg BID. As for the experimental part: as §1
For determination of compound plasma concentrations, serial blood collections were performed at designated timepoints after dosing. Blood was collected in EDTA-lined tubes and placed on wet ice. Within 30 minutes of collection, blood was centrifuged, and the plasma supernatants were aliquoted and stored at −20 C until analyzed. […] CDK2 inhibitor concentrations were measured by LC-MS/MS analysis on API 4500, API 5500+, or Sciex 7500 instruments. […]

In data set [1], `CCOc1n[nH]cc1Nc1ncc2c(n1)N([C@@H]1CCC[C@@H](O)C1)C(=O)C21CC1` [Compound 2] yielded an inhibition at 30 mg/kg of about 80%.
For `CS(=O)(=O)N1CC[C@H](Nc2ncc3c(n2)N([C@@H]2CCC[C@@H](O)C2)C(=O)C32CC2)[C@H](F)C1` [Compound 3, reference compound], in data set [1] (OVCAR-3, 60 mg/kg twice daily (BID) oral), the inhibition at 60 mg/kg is about 50%. Besides, the exposure entry in data set [2] is reported as “lower exposure”.
On to `COc1n[nH]cc1Nc1ncc2c(n1)N([C@@H]1CCC[C@@H](O)C1)C(=O)C21CC1` [Compound 1], for which the inhibition at 30 mg/kg in data set [1] was about 80%.
